Where a SMILES comes first, the peptide text is derived from it.
Test system: BBB-mimicking system with the co-culture of bEnd.3 and astrocytes
Assay: In vitro BBB permeability assay in BBB-mimicking co-culture model
Type: in vitro ADME, mouse
Conditions: 10 μg/ml in top chamber, 30-120 min, 37°C

N[C@@H](Cc1cnc[nH]1)C(=O)N[C@@H](Cc1ccc(O)cc1)C(=O)O [His-Tyr] (H-His-Tyr-OH)
permeability coefficient (Pe), apical to basolateral (A > B): 0.12 ± 0.02 × 10^−5 cm^2/second
